Data taken from patent publication US20040259912A1, “Benzine derivatives, process for preparing the same and use thereof” (priority 2001, published 2004).

Experiments:
[1] = test system: RVR1/CHO and HVR1/CHO strains (CHO-K1 cells expressing rat VR1 / human VR1); conditions: in the presence of 1 μM of the compound; 3 hours reaction, then 20 hours culture with Alama Blue; strain (RVR1/CHO or HVR1/CHO) not specified
Description: RVR1/CHO and HVR1/CHO strains were inoculated on 96-well microplates (Corning Coaster) at a concentration of 4×10^4 cells/well, respectively and were cultured for 20 hours. After the culture was removed by suction, 180 μl of Ham's F12 medium (GIBCO BRL) containing 10% fetal calf serum (GIBCO BRL) was added to each well. Next, 20 μl of the assay buffer (Ham's F12 medium (GIBCO BRL), 0.5% BSA and 20 mM HEPES (Dojindo Molecular Technologies, Inc.), pH 7.5) containing a test compound at a final concentration of 1 μM was added to each well and the reaction was carried out in a carbon dioxide incubator for 3 hours. Subsequently, and Alama Blue (Wako Pure Chemical Industries, Ltd.) at a concentration of 25 μl was added to each well, and again cultured for 20 hours. Next, fluorescence was measured at excitation wavelength of 530 nm and fluorescence wavelength of 590 nm using multilabel counter (Wallac-Berthold, Japan), and survival rate of cell was determined.
According to the above-mentioned method, the agonist activity of test compounds was determined.

ICR male mice [2] = conditions: 0.01 mL dropped to the eye; capsaicin (0.3 μg) challenge at 1 hour; stimulating or desensitizing activity not specified
Description: Eight of 4-5 weeks old ICR male mice (Japan SLC) were used in a group. 0.01 mL of the drug was added dropwise to the eye, and the time when the mouse continued to close the eye was measured. The stimulation of the drug was evaluated as positive when the time is more than 10 seconds, and as negative when the time is less than 10 seconds. At 1 hour after the initial treatment, a solution of capsaicin (0.3 μg) was added dropwise to the eye to evaluate whether the stimulation is or not, and examined the desensitizing activity of the compound. The stimulating and desensitizing activity of the drug were calculated as a value of ED50. The drug was dissolved in a mixture of 10% ethanol, 20% Tween and 80-70% physiological salt solution.

ICR male mice [3] = conditions: subcutaneous; 55° C. water bath; time measured after 1, 3 and 6 hours
Description: Four to five weeks old ICR male mice (Japan SLC) were used in this test. The mouse was put into a retainer, the tail end was dipped into 55° C. water bath, and the time until the tail end rose to the surface was measured. The time was previously measured before the administration of the drug, and the mouse having the time of less than 2 seconds were selected and used in the test. Cut-off time was set to 10 seconds. The drug was administered subcutaneously, and the time was measured after 1, 3 and 6 hours to evaluate the effects of the drug. The drug was dissolved in a mixture of 10% ethanol, 20% Tween and 80-70% physiological salt solution.

ICR male mice [4] = test: Measurement of mouse bladder volume; assay type: in vivo; conditions: for Bladder volume / Bladder volume (mL): sc, 3 hours after administration, urethane anesthesia, Mean ± S.E.; for bladder volume of the mouse (result in words): subcutaneous, mouse anesthetized with urethane
Description: Measurement of Mouse Bladder Volume
Five weeks old ICR male mice were used in this test. At 3 hours after the subcutaneous administration of the drug, the abdomen of mouse was cut open under urethane anesthesia (30 mg/mouse) to expose the bladder. Physiological salt solution was infused into the bladder at the rate of 0.05 mL/minutes to check excretion reflection. All of the urine was drained off, and the physiological salt solution was infused again, and then, the bladder volume of mouse was calculated by measuring the time to urination.

## CCC(=O)c1cc(NC(=O)Nc2ccc(OC)c(OC)c2)ccc1OC(c1ccccc1)c1ccccc1 [Example 2, N-[(4-Benzhydryloxy)-3-propionylphenyl]-N′-(3,4-dimethoxyphenyl)urea]
[1]
  survival rate of the cells: 0%
ICR male mice [2]
  ED50: 2.2 µg
ICR male mice [3]
  Minimum effective dose: 1 mg/kg

## COC(=O)c1cc(NC(=O)Nc2ccccc2)ccc1OC(c1ccccc1)c1ccccc1 [Example 22, Methyl 5-(anilinocarbonylamino)-2-benzhydryloxybenzoate]
ICR male mice [4]; 3 mg/kg
  Bladder volume: 0.17 ± 0.03 mL
ICR male mice [4]; 10 mg/kg, *p ≦ 0.05 vs. vehicle
  Bladder volume (mL): 0.28 ± 0.05* mL
ICR male mice [4]; 100 mg/kg, **p ≦ 0.01 vs. vehicle
  Bladder volume (mL): 0.31 ± 0.06** mL
ICR male mice [4]
  bladder volume of the mouse (result in words): increased significantly

## C=C(C)[C@]12C[C@@H](C)[C@@]34O[C@](Cc5ccccc5)(O[C@@H]1[C@@H]3C=C(COC(=O)Cc1ccc(O)c(OC)c1)C[C@]1(O)C(=O)C(C)=C[C@@H]41)O2 [Resiniferatoxin, resiniferatoxin, reference compound]
ICR male mice [4]; 0.03 mg/kg
  Bladder volume: 0.24 ± 0.04 mL
ICR male mice [4]; 0.1 mg/kg, *p ≦ 0.05 vs. vehicle
  Bladder volume (mL): 0.39 ± 0.04* mL
ICR male mice [4]
  bladder volume of the mouse (result in words): increased significantly
